Measurements as given in US20260347330A1, “N-METHYL-D-ASPARTATE RECEPTOR (NMDAR) ANTAGONISTS AND USES THEREOF” (Bexson Biomedical, Inc., priority 2022, published 2026).
Where two headings read alike, the source gives them in different places.

Columns and labels:
[1] = biological target: NMDAR; assay: NMDA receptor [3H]-MK-801 competition radioligand binding in rat forebrain; details: for NMDAR binding affinity pKi (mean ± SEM): [3H]-MK-801 1 nM competition, 1 mM glutamate, 0.1 mM glycine, pH 7.4, 2 h ambient, N = 1-4; for % inhibition of specific [3H]-MK-801 binding: at 10,000 nM
Procedure: Rat forebrains from 7-8 week old Sprague-Dawley rats (BioChemed, USA) were homogenized in a buffer containing 10 mM HEPES and 1 mM EDTA (pH 7.4) using a mechanical homogenizer (Janke-Kunkel Ultra-Turrax T25). A 10 mL volume was used per brain for all steps involving suspension of the brain homogenate tissue. The brain homogenate was then centrifuged (15 minutes at 20,000 RPM and 4 ° C). The supernatant was carefully poured off and the pellet was resuspended in fresh 10 mM HEPES and 1 mM EDTA containing buffer. This process was repeated 5 times. Following the 5th centrifugation, the buffer was replaced with a buffer containing 10 mM HEPES (pH 7.4). The homogenate was then incubated in a water bath at 37 ° C in the dark (covered with foil). Centrifugation was then repeated 3 additional times and after resuspending in the HEPES buffer, the final homogenate was aliquoted and stored at −80 ° C until use. Protein concentration of the homogenate was determined by utilizing the Bradford method using Coomassie protein assay reagent (Sigma, USA) with Bovine Serum albumin (Sigma, USA) as a standard.
At the time of the experiment, the homogenate was diluted to a final concentration of […] in 10 mM HEPES buffer, 1 mM glutamate, and 0.1 mM glycine (pH 7.4) and combined with 1 nM (+)-[3H]-MK-801 (Perkin Elmer NET972250UC), unlabeled competitor compounds at varying concentrations, or 30 uM MK-801 to determine non-specific binding, in a total volume of 1 mL in a 96 well plate. The protein homogenate is always added to the wells last. The plates were covered with aluminum foil, and placed on a mechanical shaker (250 RPM) for 2 h at ambient temperature ([…]). After 2 h, the homogenate was collected by vacuum filtration using a Unifilter-96 Cell Harvester (Perkin Elmer) over presoaked UniFilter-96 GF/C P Microplates (Perkin Elmer) and filters were washed with room temperature 10 mM HEPES buffer (pH 7.4) (3×1 mL). The filter plates were dried overnight in a fume hood. The next day, the bound tritium was measured via liquid scintillation counting with […] MicroScint-O (Perkin Elmer) added per well, using a MicroBeta2 Plate Reader with 6-detectors scintillation counter (Perkin Elmer) at 55% efficiency. IC50 value estimates were determined in GraphPad Prism 9.3.1 using non-linear regression (single site fit) with log-concentration plotted against percent specific binding. Ki values were calculated using the equation of Cheng and Prusoff. […] Experiments were performed in duplicate. N=1-4 per compound.

[2] = biological target: T1, human Dopamine Transporter (Homo sapiens, UniProt Q01959); assay: Human dopamine reuptake transporter (DAT) inhibition functional study, ASP+ uptake in CHO cells; type: cell-based; details: at 10,000 nM, 10 μM ASP+, 1 h, CHO cells stably expressing human DAT
T1 construct: host or cells: CHO
T1 sequence (Q01959 whole entry): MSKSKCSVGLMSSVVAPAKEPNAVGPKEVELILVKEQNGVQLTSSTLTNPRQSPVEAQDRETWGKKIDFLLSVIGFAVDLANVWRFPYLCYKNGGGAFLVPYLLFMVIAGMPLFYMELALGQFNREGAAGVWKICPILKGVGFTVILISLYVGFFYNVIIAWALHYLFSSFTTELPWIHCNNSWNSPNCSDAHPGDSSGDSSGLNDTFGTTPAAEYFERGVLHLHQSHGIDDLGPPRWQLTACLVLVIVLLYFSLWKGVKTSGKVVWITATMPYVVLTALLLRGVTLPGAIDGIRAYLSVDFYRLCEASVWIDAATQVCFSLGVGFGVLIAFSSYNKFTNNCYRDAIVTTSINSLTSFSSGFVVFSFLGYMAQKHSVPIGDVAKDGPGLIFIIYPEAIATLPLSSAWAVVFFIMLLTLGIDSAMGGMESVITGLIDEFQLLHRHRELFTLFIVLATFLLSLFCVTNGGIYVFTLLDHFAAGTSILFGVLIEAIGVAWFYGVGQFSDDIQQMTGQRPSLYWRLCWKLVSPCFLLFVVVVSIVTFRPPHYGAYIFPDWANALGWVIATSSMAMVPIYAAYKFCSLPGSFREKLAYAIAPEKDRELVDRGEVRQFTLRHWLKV
Procedure: CHO cells stably expressing human Dopamine Transporter Protein (Valiscreen® Perkin Elmer RBHDATM-K) were cultured in 150 mm Tissue Culture dishes (Cell Treat 229651) at 37 ° C and 5% CO2. Ham's F-12 Nutrient Mix (Gibco, USA) was supplemented with 10% dialyzed FBS (Gibco, USA), 100 µg/ml Geneticin (Gibco, USA), and 100 units/ml Penicillin and Streptomycin (Gibco, USA) as the culture media. Cells were maintained on a consistent splitting and assay schedule and utilized until passage 30 (no change in control experiments were observed up to this point).
Cells were detached from their growth dishes using Trypsin-EDTA (0.25%) (Gibco, USA) at 70-80% confluency. The cells were counted and diluted in culture media to a density of 300,000 cells/mL. 200 µl of this mixture was added to each well of a clear bottom, black-walled 96 well plate (Coming 3603, USA). Plates were incubated in the laminar flow hood for one hour prior to being placed in the cell culture incubator in order to encourage even cell distribution across the entire well surface.
The next day, Krebs-Ringer HEPES (KRH) Buffer pH 7.4 was prepared (10 mM HEPES, 130 mM NaCl, 1.3 mM KCl, 2.2 mM CaCl2, 1.2 mM MgSO4, 1.2 mM KH2PO4) and titrated with 6N NaOH. This buffer was stored in a 4 ° C refrigerator for up to 4 days (after which it was discarded). Additionally, a solution containing KRH buffer and 330 µM Trypan Blue (Sigma T6146-25G), a solution of 20 mM ASP+(MedChem Express, NJ, USA) dissolved in DMSO, were both prepared. The 20 mM DMSO stock of ASP+ was diluted to a working concentration of 40 µM in KRH buffer. DMSO solutions of 40 mM GBR-12935 dihydrochloride (MedChem Express, NJ, USA) and 40 mM test compounds were also prepared. DMSO solutions of test compounds were then diluted to a range of […]-40 μM in KRH Buffer with 1% additional DMSO added to provide consistent DMSO concentration in all samples. […] The final DMSO concentration in each well was 0.3%. […] KRH buffer with DMSO “vehicle control” served as the total fluorescence control to represent the maximum amount of substrate uptake without DAT transporter inhibition.
At the time of assay, cell media was carefully removed from the wells via pipette aspiration. 100 μL of KRH buffer was then added to all wells. Both controls, non-specific and total fluorescence stock solutions were then added to the plate (50 µL of either 400 µM GBR-12935 or KRH DMSO buffer respectively). Additionally, GBR-12935 and test compounds were added to the plate ([…] for each sample). The 10,000 nM concentration of test compound was run in triplicate wells. Next, […] ASP+(final concentration of 10 μM) was added to each well initiating the experiment. Cells were placed in the cell culture incubator for one hour, at which point 20 µL of 330 µM Trypan Blue was added to each well to quench extracellular fluorescence. The cells were then placed in the microplate reader (BioTek Synergy Neo 2), using Gen5 Ver 3.11 software. The reader was preheated to 37 ° C and following a brief orbital shake, intracellular fluorescence was measured using a fluorescence intensity reading. Intracellular ASP+ was excited at 430 nm and emission read at 510 nm via a bottom read using the extended gain settings and high lamp energy setting.

[3] = biological target: T2, hSERT (Homo sapiens, UniProt P31645); assay: SERT [3H]-citalopram competition radioligand binding, hSERT expressing HEK293 cell membranes
T2 construct: no vendor name is printed for this cell line) RBHSTM-K; host or cells: HEK293
T2 sequence (P31645 whole entry): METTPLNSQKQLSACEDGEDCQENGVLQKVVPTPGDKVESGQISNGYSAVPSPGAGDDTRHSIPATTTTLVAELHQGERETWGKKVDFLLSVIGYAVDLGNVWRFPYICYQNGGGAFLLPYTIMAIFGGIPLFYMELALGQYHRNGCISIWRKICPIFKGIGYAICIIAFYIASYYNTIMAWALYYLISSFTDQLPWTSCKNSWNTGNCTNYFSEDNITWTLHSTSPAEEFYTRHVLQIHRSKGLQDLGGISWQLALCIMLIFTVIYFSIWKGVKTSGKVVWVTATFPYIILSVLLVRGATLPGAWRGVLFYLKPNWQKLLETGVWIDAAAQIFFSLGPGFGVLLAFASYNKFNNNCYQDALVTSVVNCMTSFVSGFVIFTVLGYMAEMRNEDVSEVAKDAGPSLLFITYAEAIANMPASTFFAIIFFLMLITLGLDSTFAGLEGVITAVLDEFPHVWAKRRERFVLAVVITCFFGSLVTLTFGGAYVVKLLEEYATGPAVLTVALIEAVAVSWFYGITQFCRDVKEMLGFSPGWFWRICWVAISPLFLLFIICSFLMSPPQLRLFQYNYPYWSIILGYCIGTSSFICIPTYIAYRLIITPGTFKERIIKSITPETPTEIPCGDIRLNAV
Procedure: Valiscreen Serotonin Transporter (SERT) (Human) Cell Line (HEK293 host cells, Product No: RBHSTM-K) grown in DMEM/F12 media with 10% FBS, 0.1 mg/ml Geneticin, 1% GlutaMAX, and 1% Penicillin-Streptomycin added were used to prepare SERT membrane fractions. Cells were grown in 150 mm dishes and harvested between 70-90% confluency, passages 5-20. Cells were detached using a buffer containing 1 mM HEPES and 2 mM EDTA (pH 7.4). After detachment, the cells were homogenized using a handheld homogenizer, and the lysate was centrifuged (30 minutes at 30,000×G) at 4 ° C The resulting pellet was resuspended in storage buffer containing 20 mM HEPES, 10 mM MgCl2, 0.1 mM EDTA, and 10% sucrose at pH 7.4. Protein concentration was determined via the Bradford method using Coomassie protein assay reagent (Sigma, USA) with Bovine Serum albumin (Sigma, USA) as standard.
Buffer containing 10 mM HEPES, 120 mM NaCl, and 5 mM KCl (pH 7.4) was added to SERT membranes to dilute to a final protein concentration of 5 µg/mL per well. Additionally, 0.5 nM [3H]-Citalopram (Perkin Elmer NET1039250UC) was added, along with unlabeled competitors at various concentrations or […] citalopram for nonspecific binding controls, bringing the total volume to 1 ml in a 96 well plate. SERT membranes were always added last to each well. The plates were covered from light with aluminum foil and incubated at ambient temperature ([…]) and placed on a mechanical shaker (250RPM) for 2 h. After 2 h, SERT protein was captured via vacuum filtration using a Unifilter-96 Cell Harvester (Perkin Elmer) over presoaked UniFilter-96 GF/C P Microplates (Perkin Elmer) and filters were washed with room temperature 10 mM HEPES, 120 mM NaCl, and 5 mM KCl buffer (pH 7.4) (3×1 mL). The filter plates were dried overnight in a fume hood. The next day, the SERT bound tritium was measured via liquid scintillation counting with MicroScint-O (Perkin Elmer), using a MicroBeta2 Plate Reader with 6-detectors scintillation counter (Perkin Elmer) at 55% efficiency. IC50 value estimates were determined in GraphPad Prism 9.3.1 using non-linear regression (single site fit) with log-concentration plotted against percent specific binding. […] For each experiments compounds were run in duplicate. N=1-3 repeats per compound.

Row | Compound | NMDAR binding affinity pKi (mean ± SEM) [1] | inhibition at 10 µM [2] [%] | also measured
1 | NC(c1ccccc1)C1CCCC1 (stereo not shown) [Compound 27, Cyclopentyl(phenyl)methanamine] | < 5.00 |  | % inhibition of specific [3H]-MK-801 binding [1]: 32.4%
2 | COc1ccc(C(C)(N)C2CCCC2)cc1 (stereo not shown) [Compound 49, 1-cyclopentyl-1-(4-methoxyphenyl)ethan-1-amine] | 6.49 ± 0.0039 |  | 
3 | CC(N)(c1ccc(F)cc1)C1CCCC1 (stereo not shown) [Compound 48, 1-cyclopentyl-1-(4-fluorophenyl)ethan-1-amine] | 6.96 ± 0.019 |  | 
4 | C=CCCC(N)(c1ccccc1)C1CCCC1 (stereo not shown) [Compound 8, 1-cyclopentyl-1-phenylpent-4-en-1-amine] | 6.24 ± 0.444 | 3.1 | 
5 | CC(N)(c1cccc(C(F)(F)F)c1)C1CCCC1 (stereo not shown) [Compound 50, 1-cyclopentyl-1-(3-(trifluoromethyl)phenyl)ethan-1-amine] | 5.86 ± 0.11 |  | 
6 | CCC(C)NC(C)(c1ccccc1)C1CCCC1 (stereo not shown) [Compound 20, N-(1-cyclopentyl-1-phenylethyl)butan-2-amine] | 7.35 ± 0.075 | 56.7 | Ki [3]: 2450 nM
7 | NC(c1ccccc1Cl)C1CCCC1 (stereo not shown) [Compound 29, (2-chlorophenyl)(cyclopentyl)methanamine] | 5.47 ± 0.030 | 10.3 | IC50 [3]: > 10000 nM
8 | CCNC(c1ccccc1)C1CCCC1 (stereo not shown) [Compound 32, N-(cyclopentyl(phenyl)methyl)ethanamine] | 5.85 |  | 
9 | CC(N)(c1cc2ccccc2s1)C1CCCC1 (stereo not shown) [Compound 51, 1-(benzo[b]thiophen-2-yl)-1-cyclopentylethan-1-amine] | < 5.00 |  | % inhibition of specific [3H]-MK-801 binding [1]: 34.6%
10 | COc1cccc(C(C)(N)C2CCCC2)c1 (stereo not shown) [Compound 13, 1-cyclopentyl-1-(3-methoxyphenyl)ethan-1-amine] | 6.82 ± 0.039 |  | 
11 | CC(C)C(C)(N)c1ccccc1 (stereo not shown) [Compound 25, 3-methyl-2-phenylbutan-2-amine] | 5.86 ± 0.044 | 37.6 | 
12 | CCCC(N)(c1ccccc1)C1CCCC1 (stereo not shown) [Compound 14, 1-cyclopentyl-1-phenylbutan-1-amine] | 5.94 ± 0.166 |  | 
13 | NC(c1ccccc1)(C1CCCC1)C1CCC1 (stereo not shown) [Compound 7, Cyclobutyl(cyclopentyl)(phenyl)methanamine] | 5.63 ± 0.029 | 24.1 | 
14 | CC(N)(c1ccccc1)C1CC1 (stereo not shown) [Compound 2, 1-cyclopropyl-1-phenylethan-1-amine] | 6.19 ± 0.162 |  | IC50 [3]: > 10000 nM
15 | CC(c1ccccc1)(C1CCCC1)N1CCCCC1 (stereo not shown) [Compound 22, 1-(1-cyclopentyl-1-phenylethyl)piperidine] | 6.08 ± .0633 |  | Ki ([3]; 0.5 nM [3H]-citalopram competition, hSERT HEK293 membranes, pH 7.4, 2 h ambient, N = 1, read-out: SERT pKi (converted)): 479 nM
16 | NC(c1ccccc1)C1CCCCC1 (stereo not shown) [Compound 28, Cyclohexyl(phenyl)methanamine] | 4.97 ± 0.054 | 17.9 | 
17 | CCCNC(c1ccccc1)C1CCCCC1 (stereo not shown) [Compound 31, N-(cyclohexyl(phenyl)methyl)propan-1-amine] | 5.76 |  | 
18 | C=CCC(N)c1ccccc1 (stereo not shown) [Compound 30, 1-phenylbut-3-en-1-amine] | < 5.00 |  | % inhibition of specific [3H]-MK-801 binding [1]: 43.9%
19 | C=CC(N)(c1ccccc1)C1CCCC1 (stereo not shown) [Compound 10, 1-cyclopentyl-1-phenylprop-2-en-1-amine] | 6.05 |  | 
20 | C#CC(N)(c1ccccc1)C1CCCC1 (stereo not shown) [Compound 53, 1-cyclopentyl-1-phenylprop-2-yn-1-amine] | < 5.00 |  | % inhibition of specific [3H]-MK-801 binding [1]: 45.0%
21 | CC(NC1CCC1)(c1ccccc1)C1CCCC1 (stereo not shown) [Compound 21, N-(1-cyclopentyl-1-phenylethyl)cyclobutanamine] | 8.06 ± 0.021 | 87.3 | 
22 | CC(N)(c1ccccc1)C1CCC1 (stereo not shown) [Compound 47, 1-cyclobutyl-1-phenylethan-1-amine] | 6.75 ± 0.016 |  | 
